Where two headings read alike, the source gives them in different places.
Columns and labels:
[1] = system: SARS-CoV-2; test: Viral load quantitative real-time PCR in SARS-CoV-2 infected NHBE cells under drug treatment; format: cell-based; conditions: for reduction of SARS-CoV-2 viral load: 5 days of treatment, viral RNA vs DMSO vehicle, n=3
[2] = system: COVID-19 patients; test: Observational comparison of representation of metabolic regulator users in hospital records versus COVID-19 cases (chi-squared / IRR, Table 3); format: in vivo, human; conditions: for representation among COVID-19 severity indicators (hospitalization, ICU admission, deaths): chi-squared test vs general hospital medical records
[3] = system: SARS-CoV-2 infected lung cells; format: cell-based; conditions: 5 days exposure, vs DMSO-treated and mock-infected controls
[4] = system: SARS-CoV-2 infected primary lung cells; format: cell-based, human
[5] = system: SARS-CoV-2 infected lung cells; test: Cell viability (Hoechst staining) of SARS-CoV-2 infected lung cells exposed to drugs; format: cell-based, human; conditions: 5 days exposure
Method: Drug Treatments: Approximately 5×10^5 NHBE cells were infected with SARS-CoV-2 at a MOI of 2 in bronchial epithelial growth media. […] After 24 h, the media was collected and changed to bronchial epithelial growth media with the respective drug at the concentration listed above. Then, every 48 hours media was collected and replenished. The media was stored at −80° C. immediately after removal. Culture viability was assessed at the end the experiment using Hoechst staining.

[6] = system: COVID-19 patients; test: Retrospective cohort of hospitalized COVID-19 patients taking metabolic regulators, outcomes before PSM (Table 2); format: in vivo, human; conditions: users before PSM
Method: Israeli Study Design and Participants: A retrospective, multi-center study was conducted in Hadassah and Ichilov medical centers. A total of 20,153 participants were diagnosed positive for SARS-COV-2 following WHO interim guidance (World Health Organization, 2020). Only patients hospitalized and diagnosed with COVID-19 were included. Participants with incomplete electronic medical records, aged less than 18, with pregnancy or severe medical conditions, including acute lethal organ injury (i.e., acute coronary syndrome, acute stroke, and severe acute pancreatitis) were excluded. The flowchart for patient inclusion is illustrated in FIG. 4J. Participants were admitted between Mar. 1, 2020, and Aug. 31, 2020 to either the Hadassah Medical Center in Jerusalem or the Tel Aviv Sourasky Medical Center. The final date of the follow up was Sep. 28, 2020. The study protocols were approved by the institutional ethics committee. Patient informed consent was waived by each ethics committee. Demographic and clinical characteristics, vital signs, laboratory tests, radiological reports, therapeutic interventions, and outcome data were extracted from electronic medical records using a standardized data collection. The laboratory data included a routine blood test, serum biochemical markers reflecting liver injury, kidney injury, and cardiac injury, lipid profile, IL-6, CRP, procalcitonin, and D-dimer were collected during hospitalization. In-hospital medication and life support intervention included the classification of the drugs, the dosage, the course of treatment, and using respiratory support were also extracted from medical records.

[7] = system: COVID-19 patients; test: Propensity score-matched analysis of hospitalized COVID-19 patients, outcomes after PSM (Table 5); format: in vivo, human
[8] = system: COVID-19 patients; test: Secondary outcomes and organ failure, incidence rate ratios and Cox hazard ratios (Table 4); format: in vivo, human
From the text: Any death that occurred was documented.

[9] = system: COVID-19 patients; conditions: 21-day hospitalization, vs PSM-matched controls
Method: In clinical data, continuous variables with non-normal distributions were expressed as median [IQR]. Categorical variables were expressed as number and percentage (%). […] Comparisons between groups were performed with Mann-Whitney U test for nonparametric variables and Fisher's exact test or χ2 test for categorical variables. Person-time data (Incidence) of two groups with different exposures may be expressed as a difference between incidence rates or as a ratio of incidence rates (IRRs). The IRRs of endpoint outcomes were calculated to estimate the incidence difference in absolute change in the incidence of two comparison groups. The cumulative rates of death were compared using the Kaplan-Meier curves. Dynamic changes of inflammatory factors tracking from day 0 to day 28 after admission were depicted using the Lowess model. A two-side a less than 0.05 was considered to define statistical significance. Data were analyzed in R-3.6.3 (R Foundation for Statistical Computing, Vienna, Austria) and SPSS Statistics (version 23.0, IBM, Armonk, N.Y., USA).
To study the effects of metabolic regulators on COVID-19 progression the dynamic changes in circulating C-reactive protein (CRP), neutrophils, and lymphocytes markers of SARS-CoV-2 induced immunoinflammatory response were analyzed.

[10] = physiological concentrations (Cmax): 20 μM rosiglitazone, 5 μM empagliflozin, 1 mM metformin
[11] = vs share in 249,939 patient records 2015-2020
[12] = vs PSM-matched non-treatment group
[13] = adjusted hazard ratio, mixed-effect Cox model, treatment versus non-treatment group
[14] = incidence rate in treatment group (first figure of 'x versus y')
[15] = incidence rate ratio, treatment versus non-treatment group

With `CN(CCOc1ccc(CC2SC(=O)NC2=O)cc1)c1ccccn1` (stereo not shown) [Rosiglitazone] the “effect on SARS-CoV-2 infected primary cells (FIG. 4C-G)” value (“effect” for short) [1] was “no effect”.

For `CC(C)(Oc1ccc(C2CC2(Cl)Cl)cc1)C(=O)O` (stereo not shown) [ciprofibrate], the “representation among COVID-19 severity indicators (hospitalization, ICU admission, deaths)” value [2] was “underrepresented in ICU admissions and deaths”.

With `Clc1ccc(C(OCCN2CCCCC2)c2ccccc2)cc1` (stereo not shown) [cloperastine] the “reduction of SARS-CoV-2 viral load” value ([1]; 10 μM) was 3 fold, the “phospholipid accumulation / lipid content” value [3] was “did not result in a reduction of lipid content” and the “glycolytic index / increase in glycolysis” value ([4]; Cmax concentration, infected primary cells) was “did not result in a reduction of lipid content or change in the glycolytic index”. For the same compound, the cell viability [5] was “without affecting cell viability”.

In the case of `OC[C@H]1O[C@@H](c2ccc(Cl)c(Cc3ccc(O[C@H]4CCOC4)cc3)c2)[C@H](O)[C@@H](O)[C@@H]1O` [empagliflozin], the “effect” value [1, 10] is reported as “no effect”.

In the case of `CC(C)OC(=O)C(C)(C)Oc1ccc(C(=O)c2ccc(Cl)cc2)cc1` [fenofibrate], the “reduction of SARS-CoV-2 viral load” value ([1]; 20 μM fenofibrate) is reported as 2 logs, the “reduction of lactate to glucose ratio” value ([4]; SARS-CoV-2 infected primary lung cells, n=3, p<0.01) is reported as 60% and the cell viability [5] is reported as “without affecting cell viability”.

With `CN(C)C(=N)N=C(N)N` [metformin] the “effect” value [1, 10] was “no effect”, the “representation among COVID-19 severity indicators (hospitalization, ICU admission, deaths)” value [2] was “significant over-representation” and the “COVID-19 Deceased, number of patients taking the drug” value ([2]; of 100 COVID-19 deceased) was 13. For the same compound, the “COVID-19 Deceased, share of patients taking the drug” value ([2]; of 100 COVID-19 deceased) was 13.00%, the “COVID-19 ICU, number of patients taking the drug” value ([2]; of 312 COVID-19 ICU patients) was 42 and the “COVID-19 ICU, share of patients taking the drug” value ([2]; of 312 COVID-19 ICU patients) was 13.46%. The “COVID-19 Hospitalization, share of patients taking the drug” value ([2]; of 1,531 hospitalized COVID-19 cases) was 8.82%, the “COVID-19 Hospitalization, number of patients taking the drug” value ([2]; of 1,531 hospitalized COVID-19 cases, adults over 40) was 135 and the “IRR, COVID-19 Deceased” value [2, 11] was 1.85. The “IRR, COVID-19 Hospitalization” value [2, 11] was 1.26, the “Follow-up days, median” value [6] was 5.0 days and the “High Flow Oxygen, %” value [6] was “(19%)”. The “ICU admission, %” value [6] was “(30.7%)”, the “Mechanically Ventilated/ECMO, %” value [6] was “(12.44%)” and the “Non-invasive positive pressure ventilation, %” value [6] was “(7.3%)”. For the same compound, the “Oxygen Supplementation, %” value [6] was “(38%)”, the “Follow-up days, median (IQR)” value ([7]; median, drug users after PSM) was 4.8 days and the “High Flow Oxygen, %” value ([7]; share of drug users after PSM) was “(15.6%)”. For the same compound, the “ICU admission, %” value ([7]; share of drug users after PSM) was “(16.3%)”, the “Mechanically Ventilated/ECMO, %” value ([7]; share of drug users after PSM) was “(10.4%)” and the “Non-invasive positive pressure ventilation, %” value ([7]; share of drug users after PSM) was “(2.2%)”. The “Oxygen Supplementation, %” value ([7]; share of drug users after PSM) was “(42.2%)”, the ICU admission rates [7, 12] was “higher ICU admission rate and respiratory interventions” and the length of hospitalization [7, 12] was “longer hospitalizations”. For the same compound, the mortality rates [7, 12] was “higher mortality rates”, the respiratory intervention rates [7, 12] was “higher ICU admission rate and respiratory interventions” and the “aHR, ICU admission” value [8, 13] was 1.1. For the same compound, the “aHR, acute cardiac injury” value [8, 13] was 1.1, the “aHR, acute kidney injury” value [8, 13] was 0.48 and the “aHR, acute liver injury” value [8, 13] was 0.76. The “aHR, invasive mechanical ventilation” value [8, 13] was 1.3, the “aHR, septic shock” value [8, 13] was 1.6 and the “IR, ICU admission” value [8, 14] was 0.37 versus 0.31 100-person-day. The “IR, acute cardiac injury” value [8, 14] was 0.25 versus 0.36 100-person-day, the “IR, acute kidney injury” value [8, 14] was 0.18 versus 0.37 100-person-day and the “IR, acute liver injury” value [8, 14] was 0.05 versus 0.11 100-person-day. The “IR, septic shock” value [8, 14] was 0.16 versus 0.12 100-person-day, the “IR, invasive mechanical ventilation” value ([8]; incidence rate in treatment group (first figure of 'x versus y'; second is the non-treatment group)) was 0.15 versus 0.12 100-person-day and the “IRR, ICU admission” value [8, 15] was 1.2. The “IRR, acute cardiac injury” value [8, 15] was 0.69, the “IRR, acute kidney injury” value [8, 15] was 0.47 and the “IRR, acute liver injury” value [8, 15] was 0.43. For the same compound, the “IRR, invasive mechanical ventilation” value [8, 15] was 1.3, the “IRR, septic shock” value [8, 15] was 1.3 and the “circulating CRP levels (inflammation)” value [9] was “no significant differences”. The lymphocyte counts [9] was “lower lymphocyte count during the recovery period” and the neutrophil counts [9] was “lower initial neutrophil counts but relativity similar response to their PSM-matched controls”.

`CCCc1nc2c(C)cc(-c3nc4ccccc4n3C)cc2n1Cc1ccc(-c2ccccc2C(=O)O)cc1` [telmisartan] was tested, and the “representation among COVID-19 severity indicators (hospitalization, ICU admission, deaths)” value [2] was “over-represented in ICU admission and deaths”.

— patent US20230190745A1, “USE OF METABOLIC REGULATORS FOR THE TREATMENT OF COVID-19” (YISSUM RESEARCH DEVELOPMENT COMPANY OF THE HEBREW …, priority 2020, published 2023)
